Experimental data taken from ChEMBL document CHEMBL4257490, “Development of a peptide-based bifunctional chelator conjugated to a cytotoxic drug for the treatment of melanotic melanoma” (Medchemcomm, 2018).
The source made the active and inactive calls. The rule behind the calls is not given here. Residues, ends and D or L forms follow the SMILES beside them. *: point of attachment. X1 = O=c1nc(N*)ccn1[C@@H]1O[C@H](CO)[C@@H](O)C1(F)F

Tests used:
[1] = Drug uptake in urinary bladder of Balb/c mouse allografted with mouse B16F10 cells using 99mTc(CO)3-labeled compound at 4 to 8 MBq, iv measured at 4 hrs by scintigraphic imaging method; assay type: ADME, organism-based; conditions: in vivo
[2] = Ratio of drug level in tumor to blood of Balb/c mouse allografted with mouse B16F10 cells using 99mTc(CO)3-labeled compound at 10 to 12 MBq/kg, iv measured at 2 hrs; assay type: ADME, organism-based, Tumor/tissue
[3] = Drug uptake in muscle of Balb/c mouse allografted with mouse B16F10 cells using 99mTc(CO)3-labeled compound at 10 to 12 MBq/kg, iv measured at 4 hrs; assay type: ADME, organism-based, Muscle tissue; conditions: in vivo
[4] = Drug uptake in tumor muscle of Balb/c mouse allografted with mouse B16F10 cells using 99mTc(CO)3-labeled compound at 10 to 12 MBq/kg, iv measured at 4 hrs; assay type: ADME, organism-based; conditions: in vivo
[5] = Drug uptake in tumor muscle of Balb/c mouse allografted with mouse B16F10 cells using 99mTc(CO)3-labeled compound at 10 to 12 MBq/kg, iv measured at 2 hrs; assay type: ADME, organism-based; conditions: in vivo
[6] = Drug uptake in stomach of Balb/c mouse allografted with mouse B16F10 cells using 99mTc(CO)3-labeled compound at 10 to 12 MBq/kg, iv measured at 2 hrs; assay type: ADME, organism-based; conditions: in vivo
[7] = Drug uptake in muscle of Balb/c mouse allografted with mouse B16F10 cells using 99mTc(CO)3-labeled compound at 10 to 12 MBq/kg, iv measured at 2 hrs; assay type: ADME, organism-based, Muscle tissue; conditions: in vivo
[8] = n-Octanol-phosphate buffer partition co-efficient, log P of 99mTc(CO)3-labeled compound at 2 to 3 KBq after 1 min by gamma scintillation counting method; assay type: physicochemical
[9] = Drug uptake in spleen of Balb/c mouse allografted with mouse B16F10 cells using 99mTc(CO)3-labeled compound at 10 to 12 MBq/kg, iv measured at 4 hrs; assay type: ADME, organism-based; conditions: in vivo
B16-F10 = experiment: Antitumor activity against mouse B16F10 cells allografted in Balb/c mouse assessed as decrease in tumor development at 25 mg/kg, iv administered thrice weekly for 21 days starting on day 10 post tumor implantation by haematoxylin and eosin staining-based method; assay type: functional, organism-based
[10] = Drug uptake in heart of Balb/c mouse allografted with mouse B16F10 cells using 99mTc(CO)3-labeled compound at 10 to 12 MBq/kg, iv measured at 2 hrs; assay type: ADME, organism-based; conditions: in vivo
[11] = Drug uptake in mouse B16F10 cells using 99mTc(CO)3-labeled compound at 15 to 20 MBq/ml after 30 mins by gamma scintillation counting method relative to total added activity; assay type: ADME, cell-based; conditions: b16-f10, 0.5 h
[12] = Drug uptake in liver of Balb/c mouse allografted with mouse B16F10 cells using 99mTc(CO)3-labeled compound at 10 to 12 MBq/kg, iv measured at 4 hrs; assay type: ADME, organism-based; conditions: in vivo
[13] = Drug uptake in kidney of Balb/c mouse allografted with mouse B16F10 cells using 99mTc(CO)3-labeled compound at 4 to 8 MBq, iv measured at 4 hrs by scintigraphic imaging method; assay type: ADME, organism-based; conditions: in vivo
[14] = Drug uptake in lung of Balb/c mouse allografted with mouse B16F10 cells using 99mTc(CO)3-labeled compound at 10 to 12 MBq/kg, iv measured at 4 hrs; assay type: ADME, organism-based; conditions: in vivo
[15] = Drug uptake in tumor of Balb/c mouse allografted with mouse B16F10 cells using 99mTc(CO)3-labeled compound at 4 to 8 MBq, iv measured at 4 hrs by scintigraphic imaging method; assay type: ADME, organism-based, Neoplasm; conditions: in vivo

Drug uptake [1]: Active
Kp at 2 h [2]: 0.95
Drug uptake [3]: 0.15 % ID/g
Drug uptake [4]: 2.81 % ID/g
Drug uptake [5]: 1.71 % ID/g
Drug uptake [6]: 0.25 % ID/g
Drug uptake [7]: 0.17 % ID/g
logP at 1 min [8]: -0.629
Drug uptake [9]: 0.45 % ID/g
Drug uptake [10]: 0.06 % ID/g
Drug uptake [11]: 4.99%
Drug uptake [12]: 15.62 % ID/g
Drug uptake [13]: Active
Drug uptake [14]: 0.25 % ID/g
Drug uptake [15]: Active
Structure (SMILES): NCCCC[C@H](NC(=O)CNC(=O)[C@H](Cc1cnc[nH]1)NC(=O)[C@H](CCCCN)NC(=O)[C@H](Cc1ccc(O)cc1)NC(=O)[C@@H](N)Cc1cnc[nH]1)C(=O)N[C@@H](CC(=O)Nc1ccn([C@@H]2O[C@H](CO)[C@@H](O)C2(F)F)c(=O)n1)C(N)=O (H-HYKHGKD(X1)-NH2)
Activity (B16-F10): Active
